Measurements published in patent publication US9102638B2, “Amidobenzothiazoles and process for the preparation thereof” (COUNCIL OF SCIENTIFIC & INDUSTRIAL RESEARCH, priority 2011, dated 2015).

Columns and labels:
Assay type in all cases: cell-based
[1] = tested on: CCRF-CEM; experiment: In vitro cytotoxicity, NCI sixty cell line screen: CCRF-CEM (Leukemia); settings: Homo sapiens, Leukemia panel, NCI protocol, read-out: GI50 values (μM conc.)
Experimental: (§1) The in vitro anticancer activity studies for these amidobenzothiazoles were carried out at the National Cancer Institute, Maryland, USA.
(§2) The amidobenzothiazoles have been tested against sixty human tumor cell lines derived from nine cancer types (leukemia cancer cell line, non-small cell lung cancer cell line, colon cancer cell line, CNS cancer cell line, melanoma cancer cell line, ovarian cancer cell line, renal cancer cell line, prostate cancer cell line and breast cancer cell lines). For these compounds results are expressed in GI50 values of that particular cancer cell at micro molar (μM) concentration as per NCI protocol.

[2] = tested on: K-562; experiment: In vitro cytotoxicity, NCI screen: K-562 (Leukemia); settings: Homo sapiens, K562; read-out: GI50 values (μM conc.)
Experimental: as §1, §2

[3] = tested on: MOLT-4; experiment: In vitro cytotoxicity, NCI screen: MOLT-4 (Leukemia); settings: Homo sapiens; MOLT-4, Leukemia panel, NCI protocol; read-out: GI50 values (μM conc.)
Experimental: as §1, §2

[4] = tested on: EKVX; experiment: In vitro cytotoxicity, NCI screen: EKVX (Non-small cell lung); settings: Homo sapiens, Non-small cell lung panel, NCI protocol, read-out: GI50 values (μM conc.)
Experimental: as §1, §2

[5] = tested on: HOP-62; experiment: In vitro cytotoxicity, NCI screen: HOP-62 (Non-small cell lung); settings: Homo sapiens; HOP-62, Non-small cell lung panel, NCI protocol; read-out: GI50 values (μM conc.)
Experimental: as §1, §2

[6] = tested on: HOP-92; experiment: In vitro cytotoxicity, NCI screen: HOP-92 (Non-small cell lung); settings: Homo sapiens; HOP-92, Non-small cell lung panel, NCI protocol; read-out: GI50 values (μM conc.)
Experimental: as §1, §2

[7] = tested on: HCT-116; experiment: In vitro cytotoxicity, NCI screen: HCT-116 (Colon); settings: Homo sapiens, read-out: GI50 values (μM conc.)
Experimental: as §1, §2

[8] = tested on: HCT-15; experiment: In vitro cytotoxicity, NCI screen: HCT-15 (Colon); settings: Homo sapiens; HCT-15, Colon panel, NCI protocol; read-out: GI50 values (μM conc.)
Experimental: as §1, §2

[9] = tested on: KM12; experiment: In vitro cytotoxicity, NCI screen: KM12 (Colon); settings: Homo sapiens; KM12, Colon panel, NCI protocol; read-out: GI50 values (μM conc.)
Experimental: as §1, §2

[10] = tested on: SW-620; experiment: In vitro cytotoxicity, NCI screen: SW-620 (Colon); settings: Homo sapiens; SW-620, Colon panel, NCI protocol; read-out: GI50 values (μM conc.)
Experimental: as §1, §2

[11] = tested on: SNB-19; experiment: In vitro cytotoxicity, NCI screen: SNB-19 (CNS); settings: Homo sapiens; SNB-19, CNS panel, NCI protocol; read-out: GI50 values (μM conc.)
Experimental: as §1, §2

[12] = tested on: SNB-75; experiment: In vitro cytotoxicity, NCI screen: SNB-75 (CNS); settings: Homo sapiens; SNB-75, CNS panel, NCI protocol; read-out: GI50 values (μM conc.)
Experimental: as §1, §2

[13] = tested on: LOX IMVI; experiment: In vitro cytotoxicity, NCI screen: LOX IMVI (Melanoma); settings: Homo sapiens, Melanoma panel, NCI protocol, read-out: GI50 values (μM conc.)
Experimental: as §1, §2

[14] = tested on: MDA-MB-435; experiment: In vitro cytotoxicity, NCI screen: MDA-MB-435 (Melanoma); settings: Homo sapiens; MDA-MB-435, Melanoma panel, NCI protocol; read-out: GI50 values (μM conc.)
Experimental: as §1, §2

[15] = tested on: SK-MEL-28; experiment: In vitro cytotoxicity, NCI screen: SK-MEL-28 (Melanoma); settings: Homo sapiens; SK-MEL-28, Melanoma panel, NCI protocol; read-out: GI50 values (μM conc.)
Experimental: as §1, §2

[16] = tested on: SK-MEL-5; experiment: In vitro cytotoxicity, NCI screen: SK-MEL-5 (Melanoma); settings: Homo sapiens; SK-MEL-5, Melanoma panel, NCI protocol; read-out: GI50 values (μM conc.)
Experimental: as §1, §2

[17] = tested on: UACC-257; experiment: In vitro cytotoxicity, NCI screen: UACC-257 (Melanoma); settings: Homo sapiens; UACC-257, Melanoma panel, NCI protocol; read-out: GI50 values (μM conc.)
Experimental: as §1, §2

[18] = tested on: UACC-62; experiment: In vitro cytotoxicity, NCI screen: UACC-62 (Melanoma); settings: Homo sapiens; UACC-62, Melanoma panel, NCI protocol; read-out: GI50 values (μM conc.)
Experimental: as §1, §2

[19] = tested on: OVCAR-3; experiment: In vitro cytotoxicity, NCI screen: OVCAR-3 (Ovarian); settings: Homo sapiens; OVCAR-3, Ovarian panel, NCI protocol; read-out: GI50 values (μM conc.)
Experimental: as §1, §2

[20] = tested on: NCI/ADR-RES; experiment: In vitro cytotoxicity, NCI screen: NCI/ADR-RES (Ovarian); settings: Homo sapiens, Ovarian panel, NCI protocol, read-out: GI50 values (μM conc.)
Experimental: as §1, §2

[21] = tested on: A498; experiment: In vitro cytotoxicity, NCI screen: A498 (Renal); settings: Homo sapiens; A498, Renal panel, NCI protocol; read-out: GI50 values (μM conc.)
Experimental: as §1, §2

[22] = tested on: ACHN; experiment: In vitro cytotoxicity, NCI screen: ACHN (Renal); settings: Homo sapiens, Renal panel, NCI protocol, read-out: GI50 values (μM conc.)
Experimental: as §1, §2

[23] = tested on: SN12C; experiment: In vitro cytotoxicity, NCI screen: SN12C (Renal); settings: Homo sapiens, Renal panel, NCI protocol, read-out: GI50 values (μM conc.)
Experimental: as §1, §2

[24] = tested on: UO-31; experiment: In vitro cytotoxicity, NCI screen: UO-31 (Renal); settings: Homo sapiens; UO-31, Renal panel, NCI protocol; read-out: GI50 values (μM conc.)
Experimental: as §1, §2

[25] = tested on: PC-3; experiment: In vitro cytotoxicity, NCI screen: PC-3 (Prostate); settings: Homo sapiens; PC-3, Prostate panel, NCI protocol; read-out: GI50 values (μM conc.)
Experimental: as §1, §2

[26] = tested on: MCF7; experiment: In vitro cytotoxicity, NCI screen: MCF7 (Breast); settings: Homo sapiens; MCF7, Breast panel, NCI protocol; read-out: GI50 values (μM conc.)
Experimental: as §1, §2

[27] = tested on: BT-549; experiment: In vitro cytotoxicity, NCI screen: BT-549 (Breast); settings: Homo sapiens, read-out: GI50 values (μM conc.)
Experimental: as §1, §2

[28] = tested on: T-47D; experiment: In vitro cytotoxicity, NCI screen: T-47D (Breast); settings: Homo sapiens, T47D, Breast panel, NCI protocol, read-out: GI50 values (μM conc.)
Experimental: as §1, §2

[29] = tested on: leukemia cancer cell lines; experiment: In vitro activity against leukemia cancer cell lines (panel range); settings: Homo sapiens, read-out: GI50 values, range over the listed compounds and the panel
Experimental: as §1, §2

[30] = tested on: prostate cancer cell lines; experiment: In vitro activity against prostate cancer cell lines (panel range); settings: Homo sapiens, read-out: GI50 values, range over the listed compounds and the panel
Experimental: as §1, §2

## COc1ccc(/C=C\c2cc(OC)c(OC)c(OC)c2)cc1OCC(=O)Nc1nc2ccc(OC(F)(F)F)cc2s1 [Compound 8j, N1-(6-(trifluoromethoxy)-1,3-benzothiazol-2-yl)-2-{2-methoxy-5-[(Z)-2-(3,4,5-trimethoxyphenyl)-1-ethenyl]phenoxy}acetamide]
[1]
  GI50: 4.12 µM
[2]
  GI50: 3.43 µM
[3]
  GI50: 4.21 µM
[4]
  GI50: 7.89 µM
[5]
  GI50: 7.09 µM
[6]
  GI50: 2.74 µM
[7]
  GI50: 3.92 µM
[8]
  GI50: 3.23 µM
[9]
  GI50: 4.48 µM
[10]
  GI50: 5.65 µM
[11]
  GI50: 7.08 µM
[12]
  GI50: 1.56 µM
[13]
  GI50: 4.77 µM
[14]
  GI50: 1.93 µM
[15]
  GI50: 4.57 µM
[16]
  GI50: 3.26 µM
[17]
  GI50: 89.2 µM
[18]
  GI50: 5.11 µM
[19]
  GI50: 3.37 µM
[20]
  GI50: 2.7 µM
[21]
  GI50: 3.61 µM
[22]
  GI50: 8.31 µM
[23]
  GI50: 6.42 µM
[24]
  GI50: 4.37 µM
[25]
  GI50: 5.12 µM
[26]
  GI50: 2.89 µM
[27]
  GI50: 10.5 µM
[28]
  GI50: 3.95 µM
[29]
  GI50: 0.037 to 29.9 µM
[30]
  GI50: 0.18 to 22.9 µM
